Laboratory results as given in patent publication US11571467B2, “Dodecafluoropentane emulsion as a stroke and ischemia therapy” (The Board of Trustees of the University of Arkansas, priority 2011, dated 2023).
Where two headings read alike, the source gives them in different places.

What was measured:
[1] = in the liquid PFC; cited from earlier work
[2] = cited from earlier work
[3] = Pharmacokinetic study, DDFP blood levels by headspace GC-MS; assay type: in vivo, New Zealand White rabbits
Procedure: Pharmacokinetic study. In alert New Zealand White rabbits (5.1±0.5 kg; N=8), cannulae were placed in a vein of one ear and in an artery of the other ear. After intravenous injection of DDFPe (0.6 ml/kg in a 2% w/v emulsion) arterial blood samples were taken over a period of 4 to 7 h. The dose of DDFPe was repeated every 90 min in four animals. Samples were stored at −20° C. until they were analyzed for DDFP content by a headspace gas chromatograph-mass spectrometer (Varian TSQ).
Because infarct volumes were not normally distributed, ranks of infarct volume were analyzed with PROC GLM of SAS software (Kruskal-Wallis equivalent). Blood levels of DDFP were analyzed for exponential curve fit and exponential decay time constant using KaleidaGraph software v4.01 (2005). Values are given as mean±standard error.

## FC(F)(F)C(F)(F)C(F)(F)C(F)(F)C(F)(F)C(F)(F)C(F)(F)C(F)(F)Br [PFOB, perfluorooctylbromide]
[1]
  solubility of oxygen: 50 % v/v

## FC1(F)C(F)(F)C(F)(F)C2(F)C(F)(F)C(F)(F)C(F)(F)C(F)(F)C2(F)C1(F)F (stereo not drawn) [PFD, perfluorodecalin]
[1]
  solubility of oxygen: 42 % v/v

## FC(F)(F)C(F)(F)C(F)(F)C(F)(F)C(F)(F)F [DDFP, dodecafluoropentane]
[2]; humans, previous study
  half-life in blood: 2.2 ± 1.2 min
[2]; intravenous administration
  half-life in the blood: 2 min
[2]; within 2 hours after single intravenous dose
  DDFP cleared through the lungs / recovered from expired air: 99%
[3]; New Zealand White, rabbit, arterial whole blood, intravenous, FIG. 15, 0.6 ml/kg of 2% w/v emulsion, read-out: half-life in blood, representative rabbit
  half-life: 1.68 min
[3]; New Zealand White, rabbit, arterial whole blood, single DDFPe dose of 0.6 ml/kg IV
  clearance: 4.71 ± 1.49 L/h/kg
[3]; New Zealand White, rabbit, arterial whole blood, single DDFPe dose of 0.6 ml/kg IV, N=4, read-out: mean half-life in blood
  half-life: 1.45 ± 0.17 min
[3]; multiple doses at 90 min intervals
  time for blood level to return to the baseline level after each dose: less than 30 min
[3]; single DDFPe dose of 0.6 ml/kg IV
  time for blood levels to reach non-detectable levels: ≤ 30 min
[3]; up to five doses of 0.6 ml/kg at 90 min intervals
  accumulation in blood: no sign of accumulation
[1]
  solubility of oxygen: 80 % v/v
